Experiments:
SARS-CoV-2 PLpro [1] = target: T1, SARS-CoV-2 PLpro (Severe acute respiratory syndrome coronavirus 2, UniProt P0DTD1); type: binding
T1 construct: gene rep

SARS-CoV-2 PLpro [2] = target: T1, SARS-CoV-2 PLpro; type: biochemical

Compound	1H,15N-HSQC NMR competition with 15N-ISG15 (SARS-CoV-2 PLpro [1])	IC50 (SARS-CoV-2 PLpro [2]) [µM]
Cc1ccc(N)cc1C(=O)N[C@H](C)c1cccc2ccccc12 [GRL0617]	GRL0617 competes with ISG15 for the binding site in PLpro	–
Nc1nc(=S)c2[nH]cnc2[nH]1 [Tioguanine]	–	72 ± 12
CC(=O)Nc1ccc(C)c(C(=O)N[C@H](C)c2cccc3ccccc23)c1 [compound 6]	–	11 ± 3

Reference: article PMC7817691 (Nature Communications, 2021)
